Data from patent publication US20260000781A1, “FC CONJUGATES INCLUDING AN INHIBITOR OF CD73 AND USES THEREOF” (Cidara Therapeutics, Inc., priority 2022, published 2026).

Legend:
[1] = biological target: T1, surface-expressed CD73 on human PBMCs (Homo sapiens, UniProt P21589); experiment: Human immune cell-based CD73 enzyme inhibition assay (PBMCs); details: AMP 300 μM, 2.5-3 h
T1 construct: 72400 (T cells); host or cells: human PBMCs / human T cells
T1 sequence (P21589 27-549): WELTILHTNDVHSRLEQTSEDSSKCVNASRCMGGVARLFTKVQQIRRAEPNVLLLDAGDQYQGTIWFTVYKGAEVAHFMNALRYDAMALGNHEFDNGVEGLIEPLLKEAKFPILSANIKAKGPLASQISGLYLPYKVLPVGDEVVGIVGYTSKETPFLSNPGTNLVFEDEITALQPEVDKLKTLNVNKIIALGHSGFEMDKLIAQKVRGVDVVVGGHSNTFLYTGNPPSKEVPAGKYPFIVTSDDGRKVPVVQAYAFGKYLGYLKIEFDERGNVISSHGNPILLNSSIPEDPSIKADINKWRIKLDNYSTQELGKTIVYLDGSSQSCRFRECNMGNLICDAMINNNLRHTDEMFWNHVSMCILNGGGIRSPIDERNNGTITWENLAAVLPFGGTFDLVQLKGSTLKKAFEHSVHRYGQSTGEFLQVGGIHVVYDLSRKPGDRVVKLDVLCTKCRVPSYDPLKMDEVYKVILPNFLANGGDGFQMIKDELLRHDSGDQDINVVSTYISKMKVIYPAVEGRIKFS
Method: The human immune cell-based CD73 enzyme inhibition assay was performed essentially as described above For the cell-free assay, with the following modifications. Human PBMCs (cat. no. HUMAN-PBMC-U-211140) or T cells (cat. no. 72400, Stem Cell Tech) were seeded at 8×10^3 cells/well into 96-well tissue culture-treated plates. […] Percent CD73 inhibition versus concentration were plotted using GraphPad Prism Version 8 and IC50's calculated using nonlinear regression analysis ([inhibitor]vs normalized response).

human T cells = experiment: Rescue of T cell activation in the presence of AMP; format: cell-based; details: CD25, 72 h
Method: Human T cells (cat. no. 72400, Stem Cell Tech) were activated with anti-CD3/CD28/CD2 T cell activator (cat. no. 10970, Stem Cell Technologies) and seeded at 1×10^5 cells/well in ImmunoCult™—XF T Cell Expansion medium into 96-well tissue culture-treated plates. Test articles were added at concentrations ranging from 1 to 10,000 nM. Next, adenosine 5′-monophosphate (AMP; cat. no 01930, Sigma) was added at 30 μM or 100 μM. Cells, test articles and AMP were incubated at 37° C., 5% CO2 for 72 h. After 72 h, cell supernatant was removed, and T cells were washed in staining buffer prior to staining for CD25 with anti-human CD25 PE antibody (cat. no 60153PE, Stem Cell Technologies, clone 2A3). After staining, cells were washed in staining buffer. 10,000 events were collected on flow cytometer Northern Lights (Cytek). Percent rescue versus concentration were plotted using GraphPad Prism Version 8 and EC50's calculated using nonlinear regression analysis ([inhibitor]vs normalized response).

[2] = system: colon tumor cell line CT26; experiment: Syngeneic mouse tumor efficacy model with colon tumor cell line CT26; format: in vivo; details: CT26, Day 10, 210 mg/kg/wk (30 mg/kg IP daily)
Method: Tumor efficacy models were conducted in female BALB/c mice (Charles River; 18-22 g) injected with the colon tumor cell line CT26 (ATCC; CRL-2638). Briefly, CT26 cells freshly prepared and resuspended in PBS were injected SC into the shaved right flank of mice. Tumors were allowed to grow until they became measurable (˜50 mm^3) (typically after 7-10 days of growth). Mice were then randomized so each starting group had approximately the same tumor group average (typical+/−5 mm^3) and treatment initiated. Each group consisted of 10 animals. Conjugate 133a was dosed at 20 mg/kg via intraperitoneal (IP) injection on MWF, for 2 weeks. […] The study also included a vehicle (PBS) only treatment group with the aforementioned schedule. After initiation of treatment tumors were measured 3×/week with tumor volumes calculated based on the following formula: (width×width×length)/2. All tumors were monitored until the maximum allowed volume was reached (=>2,000 mm^3).
Tumor efficacy models were conducted in female BALB/c mice (Charles River; 18-22 g) injected with the colon tumor cell line CT26 (ATCC; CRL-2638). […] After initiation of treatment tumors were measured 3×/week with tumor volumes calculated based on the following formula: (width×width×length)/2. All tumors were monitored until the maximum allowed volume was reached (=>2,000 mm^3). […]

Row | IC50 [1] [nM] | EC50 (human T cells; 30 μM AMP) [nM] | EC50 (human T cells; 100 μM AMP) [nM] | Structure (SMILES) | reduction in tumor volume compared to the vehicle group [2] [%]
1 | 0.02 | 2.88 | 8.37 | COC[C@](CO)(OC[C@H]1O[C@@H](n2ncc3c(NC4CCCC4)nc(Cl)nc32)[C@H](O)[C@@H]1O)P(=O)(O)O [OP5244] | 
2 |  |  |  | C[C@H](Nc1cc(Cl)nc2c1cnn2[C@@H]1O[C@H](COP(=O)(O)CP(=O)(O)O)[C@@H](O)[C@H]1O)c1ccccc1F [AB680] | 50.7
